Measurements reported in a melting point compilation (Tetko et al.; mined from patent text by program, amines drawn as free bases though some values may be those of a salt).

Structure (SMILES)	melting point [°C]
O=c1cc(-c2ccc(O)nc2)oc2ccccc12	296 to 297
N#Cc1cnn(-c2ccc(Cl)c(Cl)c2Cl)c1N(C(=O)Oc1ccccc1)C(=O)Oc1ccccc1	206 to 208
CC1(C)Oc2cc(Cl)c(C#N)cc2C2OC21 (stereo unspecified)	129 to 132
CC12CCC3C(CC(O)C4(O)CC=CCC34C)C1CCC2=O (stereo unspecified)	183 to 186
CCCNC(=O)C(C#N)=C(SC)SC	65 to 66
Nc1nc(-c2cc(Cl)ccc2Cl)nc(N2CCC(O)(c3ccccc3)CC2)n1	176 to 178
COc1cc(C#CC(=O)NCCCNC(=O)C#Cc2cc(OC)c(OC)c(OC)c2)cc(OC)c1OC	158 to 160
CC(C)(C)OC(=O)c1ncn2c1[C@@H]1CC=CN1C(=O)c1c(Cl)cccc1-2	235 to 237
Cc1nnc2n1-c1sc(C#CCN3C(=O)C(=O)c4ccccc43)cc1C(c1ccccc1Cl)=NC2	185 to 190
c1ccn(Nc2ccc(N3CCOCC3)nn2)c1	228
CCOC(=O)C(Cc1ccc(OCC=C(C)c2ccc(-c3ccc(C(C)=CCOc4ccc(CC(OCC)C(=O)OCC)cc4)cc3)cc2)cc1)OCC (stereo unspecified)	100 to 106
OCCCc1cnoc1-c1ccc(C(F)(F)F)cc1	85 to 86
CN(O)CCCc1ccc2c(c1)C(=O)c1ccccc1CO2	113 to 114
CC(C)(CO)c1cc(NC(=O)C(C)(C)S(=O)(=O)C2CCOCC2)on1	191 to 192
CN1CCC(Oc2ccccc2)(c2ccccc2)CC1	99 to 101
CS(=O)(=O)OCC[C@H](CCCCC(=O)O)OS(C)(=O)=O	54 to 55
N#Cc1ccc2c(c1)-c1ccccc1OP2(=O)O	240
O=[N+]([O-])c1ccccc1C(O)c1cc2c(Oc3ccc(Cl)cc3)cncc2s1 (stereo unspecified)	85 to 90
CC(=O)C=Cc1cn(CC(=O)N(C)CCc2ccccc2)c2ccc(OCc3ccccc3)cc12	150 to 152
COC1(c2csc(Sc3ccc(/C(C)=N/O)cc3)n2)CCOCC1	146
N#CSc1ccc(SCc2ncon2)cc1	78
Cc1ccc(-c2ccc3c(c2)C=C(C(=O)Nc2ccc(C(O)CN4CCCCC4)cc2)CCO3)cc1 (stereo unspecified)	212 to 213
O=C(Nc1nc(-c2ccco2)c(C(=O)c2ccccn2)s1)c1ccncc1	218 to 227
Cc1nc[nH]c1CSCCNC(=N)NC#N	125 to 127
Cc1nc[nH]c1CSCCN=C(NCCSCc1[nH]cnc1C)NC(N)=O	60 to 70
FC(F)(F)c1ccc(-n2nc(N3CCN(CC4CC4)CC3)c3ccccc32)cc1	98 to 100

Structure (SMILES)	melting point [°C]
CN(CCc1ccc([N+](=O)[O-])cc1)Cc1ccc2cc([N+](=O)[O-])ccc2n1	104 to 105
O=C(O)C1=Cc2cc(F)cc(Br)c2OC1C(F)(F)F (stereo unspecified)	> 300
CC(C)(N)c1ccc(-c2nc(Nc3ccc(CCN4CCCCC4)cc3)ncc2C#N)cc1	114
O=C(O)C(O)C(Sc1ccc(O)cc1)c1ccccc1CCCCCCCCc1ccccc1 (stereo unspecified)	155 to 157
CCCC(c1ccc(C(=O)O)cc1)[Si]1(C)O[Si](C)(C)O[Si](C)(C)O[Si](C)(C)O1 (stereo unspecified)	72 to 78
CCCCCCC(C)(C)c1ccc(C2(O)CCCNC2)c(O)c1 (stereo unspecified)	147
CN(C)C(=O)N(C)c1cc(C(C)(C)C)on1	90 to 91
Cc1cnc(Cl)c(C(=O)N(CCO)Cc2cc(C(F)(F)F)cc(C(F)(F)F)c2)c1-c1ccccc1	146 to 148
CONC(=N)c1ccc(-c2ccc(-c3ccc(C(=N)NOC)nc3)o2)cc1	235 to 237
ClCc1cc2cccnc2s1	47 to 49
CC(C)c1[nH]cnc1CO	121 to 123
Cc1c(-c2ccc3c(c2)C2(CCCCC2)C(=O)N3)sc2ccc(Cl)cc12	256 to 258
CC(C)(C)[Si](C)(C)OCCn1nc(CO)cc1CO	82 to 83
COc1ccc(C)cc1NC(=O)Nc1ccc(N2CCN(C(=O)Nc3cc(OCCO)ccc3Cl)CC2)cc1	121 to 124
Cc1nc(-c2c(Cl)cc(C(F)(F)F)cc2Cl)[nH]c1S(=O)(=O)Cl	227 to 230
Nc1nc(C(=O)NCCO)cs1	118 to 120
CS(=O)(=O)c1cc(C(=O)N=C(N)N)cc(-n2cccc2)c1	235 to 236
CC(=O)C1(O)CCC2C3C=C(Cl)C4=CC(=O)OCC4(C)C3CCC21C (stereo unspecified)	218 to 221
CS(=O)(=O)Nc1ccc([N+](=O)[O-])cc1OC1CCSCC1	200
CC1(C)Oc2ccc(C#N)cc2C(n2ccc(-c3ccc([N+](=O)[O-])cc3)cc2=O)C1O (stereo unspecified)	278 to 284
CC(C)(C)ONC(=O)[C@H]1CNCCN1C(=O)OC(C)(C)C	113 to 114
COc1ccc2nc3c(c(-c4ccc(C(F)(F)F)cc4)c2c1)CNC3=O	305
Oc1ccc(C(=C2CCNCC2)c2ccccc2)cc1	> 260
O=Cc1nccc(OCc2ccccc2)c1OCc1ccccc1	103 to 104
COc1ccc(CNc2nc(CCCC(=O)O)nc3oc4c(c23)CCCC4)cc1Cl	205

The next lines start with the values.

melting point [°C]	Structure (SMILES)
68 to 70	O=[N+]([O-])c1ccc(F)c(-c2cccnc2)c1F
168 to 170	CCOC(=O)C(C)(C)n1c(=O)[nH]c2cccc(F)c2c1=O
104 to 105	COC(=O)c1[nH]c2c(C)ccc(C)c2c1C=NOCc1ccccc1
143 to 145	CN(C)C(=O)NCc1cccc2c1C(=O)N(C1CCC(=O)NC1=O)C2=O (stereo unspecified)
234 to 236	CCCNC(=O)Nc1c(C(=O)c2ccccc2)[nH]c2cc(Cl)ccc12
193 to 196	CCOC(=O)/C=C/c1cccc(-c2c(CC(=O)Nc3ccc(F)cc3C(F)(F)F)c(=O)oc3cc(Cl)c(C)cc23)c1
198 to 200	CC(C)CNCc1ccc(S(=O)(=O)c2ccc(S(N)(=O)=O)s2)cc1
331 to 340	Cn1c2ccc(F)cc2c(=O)n2nc(C#N)cc12
124 to 126	CCOCc1nc2c(N)nc3ccccc3c2n1CCCNC(=O)OC(C)(C)C
98 to 115	CCOC(=O)c1cc2cccc(OCc3ccccc3)c2cc1O
198 to 200	CCc1cc(OCc2nc3ccccc3o2)c(=O)[nH]c1C
34 to 37	CCOC(=O)CCCCCNc1ccccc1
163 to 165	CCOC(=O)c1c(N2CCN(C)CC2)c2cc(Cl)ccc2n(C)c1=O
222 to 225	COC(=O)CCc1cc(=O)n2nc(C)nc2[nH]1
204 to 205	CCc1c(C)[nH]c(=O)c(N)c1Cc1cc(C)cc(C)c1
148 to 150	CC(=O)Nc1ccc(OC(=O)c2cc(OC(C)=O)ccc2OC(C)=O)cc1
64 to 65	CCC(OC(C)=O)c1ccc(C(OC(C)=O)C(C)(C)C)cc1 (stereo unspecified)
131 to 132	CCOc1nn(-c2ccc(C(F)(F)F)cn2)cc1CCCOc1ccc(CCC(=O)O)cc1OC
241 to 244	O=C(O)CN1C(=O)C(=Cc2cccc3ccccc23)SC1=S
258 to 260	O=C(NCCc1ccncc1)c1[nH]c2ccc(Cl)cc2c1S(=O)(=O)c1ccccc1
118 to 120	CC(=O)Nc1ccccc1OCCCN1CCC(c2noc3cc(F)ccc23)CC1
322 to 325	CCc1cc2[nH]c(=O)cc(O)c2c(CC)n1
65 to 69	Cc1ccc2ccn(CC(C)O)c2c1 (racemic)
154	COc1ccc2nccc(CCC[C@@H]3CCN(CC#Cc4ccccc4F)C[C@@H]3C(=O)O)c2c1
166	Cc1nc(NC(=O)c2cnn3c(C(F)(F)F)cc(-c4ccc(C(F)(F)F)cc4)nc23)sc1S(=O)(=O)NCCO

melting point [°C]	Structure (SMILES)
144 to 146	CC[C@H]1COC(=O)N1c1cc(C)nc(Oc2c(C)cc(Cl)cc2C)c1C(=O)OC
95 to 102	CCCCCCCCCCCCc1cn(C(C(=O)Nc2c(OC)cc(OC)cc2OC)c2ccccc2)cn1 (stereo unspecified)
213 to 215	Fc1cccc(Cl)c1C1C=C(c2ccc(Cl)cc2)Nc2ncnn21 (stereo unspecified)
146 to 148	CC(C)(C)NC(=O)OC1SCN(c2ccccc2)C1=O (stereo unspecified)
172 to 175	N=C(N)Nc1nc(CSCCNc2c(NCc3ccncc3)c(=O)c2=O)cs1
133 to 141	COCC1CN(c2ccc3cc(OCCS(C)=O)ccc3c2)C(=O)O1 (stereo unspecified)
102 to 103	O=C(CBr)c1ccc(-c2ccc(F)cc2)cc1
126	C=C(C)c1ccc2c(c1)C(=O)c1ccccc1C2=O
180	O=C(NOCCO)c1cc(Cl)c(F)c(F)c1Nc1ccc(I)cc1F
88 to 93	COc1cc(C)c(C(=O)c2c(C)cncc2Br)c(OC)c1OC
175 to 176	Cc1sc(N2C(=O)OCC2(C)C)nc1-c1ccc(Br)cc1
243 to 245	Cc1nc(-n2ccc(C(=O)Nc3ccccc3)cc2=O)sc1C(=O)NCc1ccccc1
191 to 196	CCC(CC)(CC(=O)Nc1ccc2ccc(OCc3ccc4cc(F)ccc4n3)cc2c1)C(=O)O
127 to 130	NC(=O)c1cn([C@@H](CO)CCn2ccc3ccccc32)cn1
229 to 231	CCC(=O)c1c[nH]c2cc(C(=O)OC)ccc12
233 to 238	O=C(O)Cc1c(C(=O)c2ccc(Cl)cc2)[nH]c2ccc(F)cc12
68 to 69	CC(=O)OCC(ON1C(C)(C)CC(O)CC1(C)C)c1ccccc1 (stereo unspecified)
160 to 162	CCCCn1c(=O)c(NC(=O)Nc2cc(Cc3ncc[nH]3)ccc2C(C)(C)C)c(-c2cccc(O)c2)c2cccnc21
129 to 131	CCNc1cc(N2CCN(C(=O)OC(C)(C)C)CC2)c(F)cc1[N+](=O)[O-]
155 to 156	COc1ccc(-n2c(-c3ccc(S(N)(=O)=O)cc3)cc(C)c2Cl)cc1
165	COc1ccc(C(=O)C(=O)c2ccc(-c3ccc(F)cc3)s2)cc1C
164 to 165	Nc1ccc(CCC(=O)Nc2ccc(Cl)cc2Cl)cc1[N+](=O)[O-]
207	O=C(Cc1ccc(F)cc1)Nc1cccc2nc(N[C@@H]3CCc4ccccc43)ccc12
98 to 100	CCOC(=O)c1cccn2cc(C(OCC)OCC)nc12
75 to 77	CC1(C)OC(C=Cc2cccs2)=CC1=O
